What all share (format): biochemical
Experiment [1] has as its target T1, ACAT (Oryctolagus cuniculus, UniProt A0A5F9CPP4).
T1 construct: supernatant of homogenate of the arterial wall of a rabbit; from tissue; host or cells: supernatant of homogenate of rabbit arterial wall
T1 sequence (A0A5F9CPP4 1-555): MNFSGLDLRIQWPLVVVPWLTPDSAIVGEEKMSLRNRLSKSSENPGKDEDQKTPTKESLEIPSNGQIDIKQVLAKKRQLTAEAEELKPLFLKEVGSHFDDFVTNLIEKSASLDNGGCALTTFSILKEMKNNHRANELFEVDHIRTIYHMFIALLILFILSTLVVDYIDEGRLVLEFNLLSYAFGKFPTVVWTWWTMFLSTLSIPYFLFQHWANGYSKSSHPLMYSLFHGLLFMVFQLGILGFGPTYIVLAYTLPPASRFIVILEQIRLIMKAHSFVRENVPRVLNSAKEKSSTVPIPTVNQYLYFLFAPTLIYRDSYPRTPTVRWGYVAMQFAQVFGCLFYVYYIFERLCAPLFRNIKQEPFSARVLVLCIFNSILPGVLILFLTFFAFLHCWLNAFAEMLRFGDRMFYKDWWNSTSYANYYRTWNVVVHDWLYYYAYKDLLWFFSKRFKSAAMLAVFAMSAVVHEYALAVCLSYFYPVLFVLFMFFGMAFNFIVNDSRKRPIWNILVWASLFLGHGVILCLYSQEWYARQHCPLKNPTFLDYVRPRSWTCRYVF
Description: ACAT-inhibitory activity in vitro, supernatant of homogenate of the arterial wall of a rabbit (acylation of cholesterol with radiolabeled oleoyl-CoA). How it is done: (§1) Representative compounds according to the present invention were examined for ACAT-inhibitory activity according to the in-vitro test method described in Journal of Lipid Research, vol. 24, pp. 1049-1059 (1983) by F. J. Field and S. N. Mathur.
(§2) The inhibitory activity of a test compound against the acylation, which was based on the inhibitory activity of the test compound against the enzyme which catalyzes the acylation of cholesterol with oleoyl-CoA, was evaluated by using one of the supernatant of homogenate of the arterial wall of a rabbit, the microsome of the small intestine of a rat and the supernatant of homogenate of the epithelial cell (CaCO2) resulting from human colon cancer as an enzyme source, determining the amount of a radioisotope-labeled cholesterol oleate made from a radiolabeled oleoyl-CoA and (free) cholesterol and comparing the result of the case when a test compound was added with the result of control (the case when no test compound was added).
(§3) The data which are given in Table 1 are IC50 values, i.e., the concentrations of test compounds necessary for inhibiting 50% of the enzymatic activity of ACAT.

Experiment [2] concerns ACAT. Briefly: ACAT-inhibitory activity in vitro, supernatant of homogenate of the epithelial cell (CaCO2) resulting from human colon cancer (acylation of cholesterol with radiolabeled oleoyl-CoA). How it is done: as §1, §2, §3
The target of experiment [3] is T2, ACAT (Rattus norvegicus, UniProt Q7TQM4).
T2 construct: the microsome of the small intestine of a rat; from tissue; host or cells: microsomes of rat small intestine
T2 sequence (Q7TQM4 1-524): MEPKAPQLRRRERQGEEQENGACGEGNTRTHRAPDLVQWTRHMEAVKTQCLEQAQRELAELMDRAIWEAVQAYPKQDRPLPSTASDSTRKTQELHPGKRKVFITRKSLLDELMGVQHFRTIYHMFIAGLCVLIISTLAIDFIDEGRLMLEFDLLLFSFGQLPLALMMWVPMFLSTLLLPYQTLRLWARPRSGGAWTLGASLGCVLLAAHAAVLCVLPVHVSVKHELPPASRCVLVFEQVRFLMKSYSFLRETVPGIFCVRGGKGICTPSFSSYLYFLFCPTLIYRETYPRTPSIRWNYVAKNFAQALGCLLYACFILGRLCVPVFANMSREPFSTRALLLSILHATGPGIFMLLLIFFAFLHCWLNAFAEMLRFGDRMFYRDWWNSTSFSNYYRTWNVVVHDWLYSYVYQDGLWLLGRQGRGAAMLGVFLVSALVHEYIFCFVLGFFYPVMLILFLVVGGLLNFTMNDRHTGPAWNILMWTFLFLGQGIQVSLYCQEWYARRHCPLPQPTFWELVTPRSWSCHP
Briefly: ACAT-inhibitory activity in vitro, microsome of the small intestine of a rat (acylation of cholesterol with radiolabeled oleoyl-CoA). How it is done: as §1, §2, §3

pIC50: −log10 of the molar value.

Regarding `CCCCNC(=O)Nc1c(C)cc(O)cc1OCCCn1cnc(-c2ccccc2)c1CC` [Example 1, N-Butyl-N'-[2-[3-(5-ethyl-4-phenyl-1H-imidazol-1-yl)propoxy]-4-hydroxy-6-methylphenyl]urea], on ACAT [1], the pIC50 is 6.24.
As to `CCCCNC(=O)Nc1c(C)cccc1OCCCn1cnc(-c2ccc(O)cc2)c1CC` [Example 2, N-Butyl-N'-[2-[3-[5-ethyl-4-(4-hydroxyphenyl)-1H-imidazol-1-yl]propoxy]-6-methylphenyl]urea], the pIC50 against ACAT [1] was 5.16; with ACAT [2], 6.00.
In the case of `CCCCNC(=O)Nc1c(C)cccc1OCCCn1cnc(-c2ccccc2)c1C(C)O` (centres unmarked) [Example 5, N-Butyl-N'-[2-[3-[5-(1-hydroxyethyl)-4-phenyl-1H-imidazol-1-yl]propoxy]-6-methylphenyl]urea], the pIC50 on ACAT [3] is 6.82; on ACAT [1] it was 6.07; in the experiment on ACAT [2], 6.77.
The molecule `CCc1c(-c2ccccc2)ncn1CCCOc1cccc(C)c1NC(=O)NCCCCO` [Example 6, N-(4-Hydroxybutyl)-N'-[2-[3-(5-ethyl-4-phenyl-1H-imidazol-1-yl)propoxy]-6-methylphenyl]urea] gave a pIC50 at ACAT [1] of 5.42.
With `CCc1c(-c2ccccc2)ncn1CCCOc1cccc(C)c1NC(N)=O` [Example 8, N-[2-[3-(5-Ethyl-4-phenyl-1H-imidazol-1-yl)propoxy]-6-methylphenyl]urea], the pIC50 in the experiment on ACAT [2] was 5.46.
Consider `CCCCNC(=O)Nc1c(CO)cccc1OCCCn1cnc(-c2ccccc2)c1CC` [Example 9, N-Butyl-N'-[2-[3-(5-ethyl-4-phenyl-1H-imidazol-1-yl)propoxy]-6-hydroxymethylphenyl]urea], for which the pIC50 is 7.08 at ACAT [3], 6.15 against ACAT [1] and 6.49 with ACAT [2].
In the same order, the values of `CCc1c(-c2ccccc2)ncn1CCCOc1cccc(C)c1NC(=O)NCCC(C)O` (centres unmarked) [Example 10, N-(3-Hydroxybutyl)-N'-[2-[3-(5-ethyl-4-phenyl-1H-imidazol-1-yl)propoxy]-6-methylphenyl]urea] are 5.38, 6.00 and 6.32.
In the same order, the values of `CCCCNC(=O)Nc1c(OCCCn2cnc(-c3ccccc3)c2CC)ccc(O)c1C` [Example 11, N-Butyl-N'-[2-[3-(5-ethyl-4-phenyl-1H-imidazol-1-yl)propoxy]-5-hydroxy-6-methylphenyl]urea] are 7.17, 6.59 and 7.00.

The term pIC50 denotes the negative decadic logarithm of the IC50, by convention in mol/L.

(Values after patent US5462958A, “Benzene derivatives and method of treating arteriosclerosis with benzene derivatives” (Eisai Co., Ltd., priority 1992, dated 1995).)
